Data on 9 compounds can be found in patent publication US20210179636A1, “ANTIBACTERIAL COMPOUNDS” (priority 2016, published 2021).

For one series, the system named is HepG2 ATCC HB-8065. Description: Human cell viability assay (CellTiter-Glo). Format: cell-based. Particulars: for IC50: Homo sapiens, HepG2 cell viability, 24 h with compound, range 1-128 μg/mL; for toxicity against HepG2 human hepatic cell line (in words): summary of Table 3. How it is done:
Compounds are assessed for potential non-specific cytotoxic effects against a human hepatic cell line (HepG2 ATCC HB-8065). HepG2 cells are seeded at 20,000 cells/well in 96-well microtitre plates in minimal essential medium (MEM) supplemented with a final concentration of 10% FBS and 1 mM sodium pyruvate. After 24 h compound dilutions are prepared in Dulbecco's minimum essential media (DMEM) supplemented with final concentrations of 0.001% FBS, 0.3% bovine albumin and 0.02% HEPES and added to cells. Compounds are tested in two-fold serial dilutions over a final concentration range of 1-128 μg/mL in a final DMSO concentration of 1% vol/vol. Chlorpromazine is used as a positive control. Cells are incubated with compound at 37° C. and 5% CO2 for a further 24 h, after which time the CellTiter-Glo reagent (Promega) is added. Luminescence is measured on a BMG Omega plate reader. Data are analysed using GraphPad Prism software to determine the concentration of compound that inhibits cell viability by fifty percent (IC50).
In general terms: In ATP-based viability assays light output follows the ATP content of the culture.

For series [1], the system named is Staphylococcus aureus ATCC 29213. Nature of the series: MIC, broth microdilution (CLSI). In kind it is cell-based. Particulars: Staphylococcus aureus, ATCC29213; S. aureus ATCC 29213; 16-20 h; mode of three experiments; read-out: MIC. For orientation: In broth dilution the organism is exposed to a series of concentrations in liquid medium.
The test system of series [2] is Acinetobacter baumannii NCTC 13420. Nature of the series: MIC, broth microdilution (CLSI). Format: cell-based. The conditions noted are these: Acinetobacter baumannii, NCTC13420; A. baumannii NCTC 13420; 16-20 h; mode of three experiments; read-out: MIC.
The test system of series [3] is Enterobacter cloacae NCTC 13406. Nature of the series: MIC, broth microdilution (CLSI). Format: cell-based. Particulars: Enterobacter cloacae, NCTC13406; E. cloacae NCTC 13406; 16-20 h; mode of three experiments; read-out: MIC.
The subject of series [4] is Escherichia coli ATCC 25922. Description: MIC, broth microdilution (CLSI). Format: cell-based. Particulars: Escherichia coli, ATCC25922; E. coli ATCC 25922; 16-20 h; mode of three experiments; read-out: MIC.
Series [5] deals with Pseudomonas aeruginosa ATCC 27853. Description: MIC, broth microdilution (CLSI). The conditions noted are these: Pseudomonas aeruginosa, ATCC27853; P. aeruginosa ATCC 27853; 16-20 h; mode of three experiments; read-out: MIC. In kind it is cell-based.
Series [6] concerns Klebsiella pneumoniae ATCC 700603. Nature of the series: MIC, broth microdilution (CLSI). In kind it is cell-based. The conditions noted are these: Klebsiella pneumoniae, ATCC700603; K. pneumoniae ATCC 700603; 16-20 h; mode of three experiments; read-out: MIC.
For series [7], the system named is Haemophilus influenzae ATCC 49247. Description: MIC, broth microdilution (CLSI). In kind it is cell-based. Particulars: Haemophilus influenzae, ATCC49247; H. influenzae ATCC 49247; 16-20 h; mode of three experiments; read-out: MIC.
Series [8] concerns Streptococcus pneumoniae ATCC 49619. Description: MIC, broth microdilution (CLSI). In kind it is cell-based. Particulars: Streptococcus pneumoniae, ATCC49619; S. pneumoniae ATCC 49619; 16-20 h; mode of three experiments; read-out: MIC.
In a further series the test system is E. coli ATCC BAA-2452. Nature of the series: MIC, broth microdilution (CLSI). Format: cell-based, Escherichia coli. The conditions noted are these: Escherichia coli, 16-20 h, mode of three experiments, read-out: MIC.
Series [9] concerns Acinetobacter baumannii ATCC 19606. Description: MIC, broth microdilution (CLSI). In kind it is cell-based. The conditions noted are these: Acinetobacter baumannii, ATCC19606; A. baumannii ATCC 19606; 16-20 h; mode of three experiments; read-out: MIC.
The test system of a further series is E. coli MG1655 S83L. Format: cell-based, Escherichia coli. The conditions noted are these: compared to the isogenic parent strain E. coli MG1655; S83L mutation on DNA gyrase subunit GyrA.
In a further series the test system is E. coli NCTC 13476. Nature of the series: MIC, broth microdilution (CLSI). The conditions noted are these: Escherichia coli, NCTC13476, 16-20 h, mode of three experiments, read-out: MIC. Format: cell-based, Escherichia coli.
A further series deals with E. coli MG1655 D87G. Format: cell-based, Escherichia coli. Particulars: compared to the isogenic parent strain E. coli MG1655; D87G mutation on DNA gyrase subunit GyrA.

In brackets after ≈: the same amount, converted by molar mass.

Turning to `O=C1COc2ccc(N3C[C@@H]4CN(CCCn5c(=O)ccc6ccccc65)C[C@@H]4OC3=O)nc2N1` (relative stereo) [Compound 4, rel-1-{3-[(4aS*,7aR*)-2-oxo-3-{3-oxo-2H,3H,4H-pyrido[3,2-b][1,4]oxazin-6-yl}-octahydropyrrolo[3,4-e][1,3]oxazin-6-yl]propyl}-1,2-dihydroquinolin-2-one], in the series with HepG2 ATCC HB-8065, the IC50 (commonly the midpoint of a concentration-inhibition curve) is above 100 µg/mL. The MIC in series [1] is below 1 µg/mL; in series [2], below 1 µg/mL; in series [3] it was below 1 µg/mL; in series [4], below 1 µg/mL; in series [5], 1 to 10 µg/mL (≈ 2.1 to 21 µM); in [6], 1 to 10 µg/mL (≈ 2.1 to 21 µM).

With `O=C1COc2ccc(N3C[C@H]4CN(CCn5c(=O)ccc6ccc(OCCO)nc65)C[C@@H]4OC3=O)nc2N1` (relative stereo) [Compound 5], in the series on HepG2 ATCC HB-8065, the half-maximal inhibitory concentration (IC50) is above 100 µg/mL. For the same compound, the MIC in series [1] was below 1 µg/mL; in [2], above 100 µg/mL; in series [3], 10 to 100 µg/mL (≈ 19.1 to 191 µM); in [4], 10 to 100 µg/mL (≈ 19.1 to 191 µM); in [7], 1 to 10 µg/mL (≈ 1.91 to 19.1 µM); in series [5], 10 to 100 µg/mL (≈ 19.1 to 191 µM). The MIC in [6] is above 100 µg/mL; in series [8], 1 to 10 µg/mL (≈ 1.91 to 19.1 µM).

Take `NCCCOc1ccc2ccc(=O)n(CCN3C[C@@H]4CN(c5ccc6c(n5)NC(=O)CO6)C(=O)O[C@H]4C3)c2n1` (relative stereo) [Compound 8]: the concentration for half-maximal inhibition (IC50) in the series with HepG2 ATCC HB-8065 is above 100 µg/mL. Further, the MIC in [1] was 1 to 10 µg/mL (≈ 1.87 to 18.7 µM); in series [2], above 100 µg/mL; in series [3], above 100 µg/mL; in series [4], 10 to 100 µg/mL (≈ 18.7 to 187 µM); in [7] it was above 100 µg/mL; in series [5] it was 10 to 100 µg/mL (≈ 18.7 to 187 µM). In addition, the results for the MIC in series [6] and in series [8] were above 100 µg/mL and 1 to 10 µg/mL (≈ 1.87 to 18.7 µM), respectively.

For the compound `COc1ncc2ccc(=O)n(CCN3C[C@H]4CN(c5ccc6c(n5)NC(=O)CO6)C(=O)O[C@@H]4C3)c2n1` (relative stereo) [Compound 13, rel-(4aS*,7aR*-6-(2-{2-methoxy-7-oxo-7H,8H-pyrido[2,3-d]pyrimidin-8-yl}ethyl)-3-{3-oxo-2H,3H,4H-pyrido[3,2-b][1,4]oxazin-6-yl}-octahydropyrrolo[3,4-e][1,3]oxazin-2-one], in the series on HepG2 ATCC HB-8065, the half-inhibitory concentration (IC50) was 1 to 10 µg/mL (≈ 2.03 to 20.3 µM). Also, the MIC in series [1] was below 1 µg/mL; in [2], 10 to 100 µg/mL (≈ 20.3 to 203 µM); in series [3], 10 to 100 µg/mL (≈ 20.3 to 203 µM); in series [7] it was 1 to 10 µg/mL (≈ 2.03 to 20.3 µM); in series [5], 10 to 100 µg/mL (≈ 20.3 to 203 µM); in [6] it was 10 to 100 µg/mL (≈ 20.3 to 203 µM). Moreover, in series [8], the MIC was 1 to 10 µg/mL (≈ 2.03 to 20.3 µM).

For `N#Cc1ccc2ccc(=O)n(CCCN3C[C@H]4CN(c5ccc6c(n5)NC(=O)CO6)C(=O)O[C@@H]4C3)c2c1` (relative stereo) [Compound 14, rel-1-{3-[(4aS*,7aR*)-2-oxo-3-{3-oxo-2H,3H,4H-pyrido[3,2-b]1,4]oxazin-6-yl}-octahydropyrrolo[3,4-e][1,3]oxazin-6-yl]propyl}-2-oxo-1,2-dihydroquinoline-7-carbonitrile], the MIC with E. coli ATCC BAA-2452 is below 1 µg/mL; in series [1] it was below 1 µg/mL; in series [9], 1 to 10 µg/mL (≈ 2 to 20 µM); in series [2] it was below 1 µg/mL; in [3] it was 1 to 10 µg/mL (≈ 2 to 20 µM); in [4], below 1 µg/mL. Also, the MIC in the series with E. coli NCTC 13476 was 1 to 10 µg/mL (≈ 2 to 20 µM); in series [7] it was below 1 µg/mL; in [5], 1 to 10 µg/mL (≈ 2 to 20 µM); in series [6] it was 1 to 10 µg/mL (≈ 2 to 20 µM); in series [8], below 1 µg/mL. The half-maximal inhibitory concentration (IC50) in the series on HepG2 ATCC HB-8065 fell in the range of 10 to 100 µg/mL (≈ 20 to 200 µM). The “toxicity against HepG2 human hepatic cell line (in words)” value in the series on HepG2 ATCC HB-8065 is on record as “acceptable level of hepatic toxicity”. Besides, the “Fold increase in MIC against E. coli MG1655 S83L” value in the series with E. coli MG1655 S83L stood at 4 fold. In the series on E. coli MG1655 D87G, the “Fold increase in MIC against E. coli MG1655 D87G” value worked out at 2 fold.

As to `NCCCOc1ccc2ccc(=O)n(CCCN3CC4CN(c5ccc6c(n5)NC(=O)CO6)C(=O)OC4C3)c2n1` (stereo not drawn) [Compound 6, rel-1-{3-[(4aS*,7aR*)-2-oxo-3-{3-oxo-2H,3H,4H-pyrido[3,2-b][1,4]oxazin-6-yl}-octahydropyrrolo[3,4-e][1,3]oxazin-6-yl]propyl}-7-(3-aminopropoxy)-1,2-dihydro-1,8-naphthyridin-2-one], in the series with HepG2 ATCC HB-8065, the half-maximal inhibitory concentration (IC50) was above 100 µg/mL. In addition, the MIC in series [1] was 1 to 10 µg/mL (≈ 1.82 to 18.2 µM); in [2], above 100 µg/mL; in [3], above 100 µg/mL; in [4], 1 to 10 µg/mL (≈ 1.82 to 18.2 µM); in series [7], above 100 µg/mL; in series [5], 10 to 100 µg/mL (≈ 18.2 to 182 µM). For the same compound, the MIC in series [6] is above 100 µg/mL; in [8], 1 to 10 µg/mL (≈ 1.82 to 18.2 µM).

Turning to `COc1ncc2ccc(=O)n(CCCN3CC4CN(c5ccc6c(n5)NC(=O)CO6)C(=O)OC4C3)c2n1` (stereo not drawn) [Compound 11, rel-(4aS*,7aR*)-6-(3-{2-methoxy-7-oxo-7H,8H-pyrido[2,3-d]pyrimidin-8-yl}propyl)-3-{3-oxo-2H,3H,4H-pyrido[3,2-b][1,4]oxazin-6-yl}-octahydropyrrolo[3,4-e][1,3]oxazin-2-one], the half-maximal inhibitory concentration (IC50) in the series on HepG2 ATCC HB-8065 is 10 to 100 µg/mL (≈ 19.7 to 197 µM). Also, in the series with HepG2 ATCC HB-8065, the “toxicity against HepG2 human hepatic cell line (in words)” value is listed as “acceptable level of hepatic toxicity”. Besides, the MIC in series [1] was below 1 µg/mL; in [2] it was 10 to 100 µg/mL (≈ 19.7 to 197 µM); in series [3], 1 to 10 µg/mL (≈ 1.97 to 19.7 µM); in [4], 1 to 10 µg/mL (≈ 1.97 to 19.7 µM); in [7], below 1 µg/mL; in [5], 10 to 100 µg/mL (≈ 19.7 to 197 µM). The MIC in [6] was 10 to 100 µg/mL (≈ 19.7 to 197 µM); in series [8] it was below 1 µg/mL.

With `COc1ccc2ccc(=O)n(CCN3CC4CN(c5ccc6c(n5)NC(=O)CO6)C(=O)OC4C3)c2n1` (stereo not drawn) [Compound 16, rel-1-{2-[(4aR*,7aR*)-2-oxo-3-{3-oxo-2H,3H,4H-pyrido[3,2-b][1,4]oxazin-6-yl}-octahydropyrrolo[3,4-e][1,3]oxazin-6-yl]ethyl}-7-methoxy-1,2-dihydro-1,8-naphthyridin-2-one], the IC50 with HepG2 ATCC HB-8065 was above 100 µg/mL. For the same compound, the MIC was below 1 µg/mL in series [1]; below 1 µg/mL in series [9]; below 1 µg/mL in series [2]; 1 to 10 µg/mL (≈ 2.03 to 20.3 µM) in series [3]; below 1 µg/mL in series [4]; below 1 µg/mL in series [7]. Moreover, the MIC was 10 to 100 µg/mL (≈ 20.3 to 203 µM) in series [5], 10 to 100 µg/mL (≈ 20.3 to 203 µM) in series [6] and below 1 µg/mL in series [8].

In the case of `C[C@H]1COc2c(N3CCN(C)CC3)c(F)cc3c(=O)c(C(=O)O)cn1c23` [LEV, levofloxacin, reference compound], the “Fold increase in MIC against E. coli MG1655 S83L” value in the series on E. coli MG1655 S83L was 8 fold. Also, in the series on E. coli MG1655 D87G, the “Fold increase in MIC against E. coli MG1655 D87G” value was determined as 8 fold.
